From PubChem BioAssay AID1250 (SRMLSC, 2008)
The source made the active and inactive calls.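 Rule for the calls: active = inhibition of at least 30% at one or more tested concentrations; inactive = inhibition below 30% at every dose.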

Experiment: antiviral protection against BTV-induced cell death – arbovirus, BSR cells, confirmation (AID 1250)
Details: BSR cells, Bluetongue virus CPE, ATP luminescence, 72 h; at 20 µM (top of the series)

SMILES | CPE inhibition
Cc1cc(C)c(NC(=S)NC(=O)c2ccc(-c3ccccc3)cc2)c(C)c1 | 14.9% (inactive)
CC(=O)Nc1ccc(-c2csc(NC(=O)c3ccc(C)o3)n2)cc1 | 27.8% (inactive)
COc1cccc(C(=O)Nc2cccc(C(=O)NC3=NN(c4c(Cl)cc(Cl)cc4Cl)C(=O)C3)c2)c1 | 18.8% (inactive)
CCOC(=O)C1(Cc2cccc(OC)c2)CCN(Cc2cccc(OC)c2O)CC1 | 24.8% (inactive)
Cc1ccc(-c2csc(NC(=O)c3cccc(S(=O)(=O)N4CCN(C)CC4)c3)n2)cc1 | 5.05% (inactive)
COc1ccc(Br)cc1CN(C)CC(=O)Nc1c(Cl)cccc1Cl | 28.5% (inactive)
Cc1cccc(N2CCN(C(=O)C3COc4ccccc4O3)CC2)c1C (configuration not stated) | 19.7% (inactive)
Cc1ccc(CSCc2nc3ccccc3[nH]2)cc1 | 12.9% (inactive)
O=C(CSCC(=O)N1CCCCC1)OCC(=O)c1c[nH]c2ccccc12 | -2.4% (inactive)
CCCN(CCC)C(=O)CSc1nc2c(sc(=S)n2-c2ccc(OCC)cc2)c(=O)[nH]1 | 28.7% (inactive)
CC(=O)NCC1=C(NC(C)=O)C2CC1C(C)(C)C2C (configuration not stated) | 2.41% (inactive)
O=C(Nc1nnc(SCc2ccc(F)cc2)s1)c1ccc2c(c1)C(=O)N(c1ccccc1Cl)C2=O | 20.2% (inactive)
O=c1c(Cl)c(N2CCN(c3ccc(F)cc3)CC2)cnn1C12CC3CC(CC(C3)C1)C2 | -3.76% (inactive)
O=C(Nc1nnc(SCc2ccccc2Cl)s1)C1COc2ccccc2O1 (configuration not stated) | 16.7% (inactive)
CCn1c(COc2cccc3ccccc23)nnc1SCC(=O)OC1CCCCC1 | 2.2% (inactive)
COc1cccc(C2=CC(c3ccc(N(C)C)cc3)n3ncnc3N2)c1 (configuration not stated) | 8.59% (inactive)
Oc1ccccc1CN1CCCN(Cc2ccccc2O)C1 | 2.17% (inactive)
COc1ccc(-c2noc(CSc3nc(-c4ccccc4)cc(=O)[nH]3)n2)cc1OC | 26.6% (inactive)
COc1ccc(OC)c(NC(=O)c2cc(-c3ccc(C)cc3O)n[nH]2)c1 | 9.4% (inactive)
Cc1ccc(O)c(-c2cc(C(=O)Nc3ccc(S(=O)(=O)Nc4nc(C)cc(C)n4)cc3)[nH]n2)c1 | 21.8% (inactive)
C/C(C/C(C)=C1/SC(=S)NC1=O)=C1\SC(=S)NC1=O | 6.76% (inactive)
O=C(COc1ccc(Cl)cc1)Nc1ncc([N+](=O)[O-])s1 | 25.3% (inactive)
CC1=NN(c2nc(-c3ccc(Cl)cc3)cs2)C(=O)C1 | 8.37% (inactive)

SMILES | CPE inhibition
Cc1ccc(S(=O)(=O)Oc2ccc(C)cc2/C=N/N=C2\NC(=O)C(C)S2)cc1 (configuration not stated) | 25.2% (inactive)
Oc1ccc(Br)cc1-c1cc(-c2ccccc2)n[nH]1 | 19.6% (inactive)
COc1ccc2nc(N3C(=O)CC(Cc4cc(C)cc(C)c4)C3=O)sc2c1 (configuration not stated) | 13.6% (inactive)
CCc1cccc(C)c1NC(=O)CN(C)Cc1ccc(Br)cc1 | 10.2% (inactive)
CC1CC1C(=O)Nc1nc(-c2ccc(Cl)s2)cs1 (configuration not stated) | 12% (inactive)
O=C(O)c1c(NC(=O)c2cccc3ccccc23)sc2c1CCC2 | 0.01% (inactive)
CCOC(=O)c1c(NC(=O)CSc2ncn[nH]2)sc(C)c1C | 21% (inactive)
N#Cc1c(-c2ccccc2)nc(SCC(=O)N(c2ccccc2)c2ccccc2)[nH]c1=O | 12.2% (inactive)
COc1cc(C2N=C(c3ccccc3)NO2)cc(Br)c1O (configuration not stated) | 18.4% (inactive)
Cc1cccc(CSc2nn3c(=O)c(C)nnc3s2)c1 | 19.1% (inactive)
O=C(N/N=C/c1c(O)n(-c2ccccc2Cl)c(=O)c2ccccc12)c1cccnc1 | 26% (inactive)
Cc1ccccc1-n1nc(CSc2nc3ccccc3[nH]2)c(-c2ccccc2)c1N | 14.9% (inactive)
O=C(O)c1cccc(-n2cccc2/C=C2/NC(=O)N(c3ccc(Cl)cc3)C2=O)c1 | 10.4% (inactive)
Cc1ccc(S(=O)(=O)CCSc2cccc(C(=O)Nc3ccccc3C(=O)O)c2)cc1 | 28.2% (inactive)
c1ccc(CSc2ccc(-c3cccnc3)nn2)nc1 | 0.68% (inactive)
O=C(O)CCn1cc(/C=C/C(=O)c2ccc(Cl)cc2)c(-c2ccc(Br)cc2)n1 | 13.8% (inactive)
O=C(CSc1nccc(=O)[nH]1)N1N=C2/C(=C/c3ccco3)CCCC2C1c1ccco1 (configuration not stated) | 21.5% (inactive)
COc1ccc2ccc(O)c(CN3CC=C(c4ccccc4)CC3)c2c1 | 14.6% (inactive)
CCCCCCc1cc2cc(C(=O)Nc3ccc(OC)cc3)c(=O)oc2cc1O | -3.41% (inactive)
COC(=O)c1ccccc1NC(=O)CN1CCC(n2nnc3cc(C(F)(F)F)ccc32)CC1 | 16.3% (inactive)
CCOC(=O)C1CCCN(Cc2ccccc2Cl)C1 (configuration not stated) | 6.31% (inactive)
O=C(Nc1sc2c(c1C(=O)O)CCCC2)c1cccs1 | 25.3% (inactive)
Cc1ccc(C(=O)c2coc3cc([N+](=O)[O-])c(O)c([N+](=O)[O-])c23)cc1 | 18.6% (inactive)

SMILES | CPE inhibition
COC(=O)c1ccccc1NC(=O)CN1CCC(NC(=O)c2ccc(C)cc2)CC1 | 21.3% (inactive)
COc1cccc(C2=CC(c3ccc(C)cc3)n3ncnc3N2)c1 (configuration not stated) | 22.6% (inactive)
COc1ccc(C(=O)Nc2cc(Cl)ccc2C(=O)O)cc1 | 17.7% (inactive)
CC(C)(C)c1ccc(C(=O)NC(=S)NCC2CCCO2)cc1 (configuration not stated) | 3.96% (inactive)
CCOCCCNC(=S)NCCNc1nc2c(C)cccc2cc1C#N | 7.38% (inactive)
CC(C)S(=O)(=O)c1nsc2nc(=O)c(/C=C3\C=Nc4ccccc43)c(N)n12 | 22% (inactive)
CC(C)S(=O)(=O)C1=NSC2=NC(=O)/C(=C\c3ccc(-c4cccc(C(=O)O)c4)o3)C(=N)N21 | 24.2% (inactive)
CN1CCN(c2ccc(/C=C3\C(=O)NC(=S)N(c4cccc(Br)c4)C3=O)o2)CC1 | 14.7% (inactive)
O=C(O)c1ccc(COc2ccc3ccccc3c2/C=C2/NC(=O)N(Cc3ccc(F)cc3)C2=O)cc1 | 7.43% (inactive)
Cc1ccccc1CSc1nnc(NC(=O)C2COc3ccccc3O2)s1 (configuration not stated) | 18.9% (inactive)
COc1ccc(F)cc1C(=O)C1CCCN(C(=O)CSc2ccccn2)C1 (configuration not stated) | 17.6% (inactive)
Oc1ccc(Br)cc1-c1nc2cnccn2c1NC1CCCC1 | 16.6% (inactive)
C/C(=N\NS(=O)(=O)c1ccccc1)c1cccc(NC(=O)c2cccc(Cl)c2)c1 | 15.9% (inactive)
COc1ccc(C(=O)Nc2ccccc2C(=O)O)cc1Cl | 24.1% (inactive)
O=c1[nH]n2c(=O)c3c([nH]c2c1N=Nc1cccc(Cl)c1)CCC3 | 16.8% (inactive)
O=C(O)CSc1nc(-c2ccc(Cl)cc2)nc2c1oc1ccccc12 | 24.1% (inactive)
CCOC(=O)c1c(NC(=O)CSc2ccccc2C(=O)O)sc(C)c1C | 19.3% (inactive)
Brc1ccccc1-c1nnc(SCc2nc3ccccc3s2)o1 | 0.37% (inactive)
CCOC(=O)c1c(-c2ccc(C)c(C)c2)csc1NC(=O)C1CC=CCC1C(=O)O (configuration not stated) | 29.6% (inactive)
Fc1ccc(Br)cc1C1C=C(c2ccc(Br)cc2)Nc2ncnn21 (configuration not stated) | 2.77% (inactive)
CCC1=NN2C(=N)/C(=C\c3cccn3-c3ccc(C)cc3C)C(=O)N=C2S1 | 27.2% (inactive)
